Results reported in PubChem BioAssay (NCI).
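GI50: concentration for 50% inhibition of growth. TGI: total growth inhibition.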

Legend:
Experiment in all cases: DTP human tumour cell line panel, 384-well format
SW-620 colon = test system: SW-620 colon
HL-60(TB) leukemia = test system: HL-60(TB) leukemia
IGROV1 ovarian = test system: IGROV1 ovarian
A549 NSCLC = test system: A549 NSCLC
HCT-15 colon = test system: HCT-15 colon
OVCAR-8 ovarian = test system: OVCAR-8 ovarian
K-562 leukemia = test system: K-562 leukemia
M14 melanoma = test system: M14 melanoma
NCI-H522 lung = test system: NCI-H522 lung
OVCAR-3 ovarian = test system: OVCAR-3 ovarian
MDA-MB-231 breast = test system: MDA-MB-231 breast
SK-MEL-5 melanoma = test system: SK-MEL-5 melanoma
NCI-H322M lung = test system: NCI-H322M lung
SK-OV-3 ovarian = test system: SK-OV-3 ovarian
MDA-MB-468 breast = test system: MDA-MB-468 breast
UO-31 renal = test system: UO-31 renal
T-47D breast = test system: T-47D breast
ACHN renal = test system: ACHN renal
HOP-62 NSCLC = test system: HOP-62 NSCLC
RPMI-8226 leukemia = test system: RPMI-8226 leukemia
NCI-H460 NSCLC = test system: NCI-H460 NSCLC
TK-10 renal = test system: TK-10 renal
MOLT-4 leukemia = test system: MOLT-4 leukemia
SF-268 CNS = test system: SF-268 CNS
786-0 renal = test system: 786-0 renal
LOX IMVI melanoma = test system: LOX IMVI melanoma
HT29 colon = test system: HT29 colon
MDA-MB-435 melanoma = test system: MDA-MB-435 melanoma
SF-539 CNS = test system: SF-539 CNS
DU-145 prostate = test system: DU-145 prostate
SNB-19 CNS = test system: SNB-19 CNS
MCF7 breast = test system: MCF7 breast
OVCAR-4 ovarian = test system: OVCAR-4 ovarian
PC-3 prostate = test system: PC-3 prostate
SK-MEL-2 melanoma = test system: SK-MEL-2 melanoma
SR leukemia = test system: SR leukemia
HCT-116 colon = test system: HCT-116 colon
HOP-92 NSCLC = test system: HOP-92 NSCLC
NCI-H226 lung = test system: NCI-H226 lung
U251 glioblastoma = test system: U251 glioblastoma
A498 renal = test system: A498 renal
MALME-3M melanoma = test system: MALME-3M melanoma
CAKI-1 renal = test system: CAKI-1 renal
NCI/ADR-RES ovarian = test system: NCI/ADR-RES ovarian
CCRF-CEM leukemia = test system: CCRF-CEM leukemia
COLO 205 colon = test system: COLO 205 colon
RXF 393 renal = test system: RXF 393 renal
NCI-H23 lung = test system: NCI-H23 lung
BT-549 breast = test system: BT-549 breast
SF-295 CNS = test system: SF-295 CNS
UACC-62 melanoma = test system: UACC-62 melanoma
KM12 colon = test system: KM12 colon
UACC-257 melanoma = test system: UACC-257 melanoma
HCC-2998 colon = test system: HCC-2998 colon
SN12C renal = test system: SN12C renal
OVCAR-5 ovarian = test system: OVCAR-5 ovarian
SK-MEL-28 melanoma = test system: SK-MEL-28 melanoma

SMILES: C=CC(=O)N1C[C@@H]2CCOc3c(Cl)c(-c4c(O)cccc4F)c(F)c4ncnc(c34)N2C[C@H]1C
- GI50 (SW-620 colon): 2270 nM
- TGI (SW-620 colon): 4070 nM
- GI50 (HL-60(TB) leukemia): 1290 nM
- TGI (HL-60(TB) leukemia): 2620 nM
- GI50 (IGROV1 ovarian): 1700 nM
- TGI (IGROV1 ovarian): 4640 nM
- GI50 (A549 NSCLC): 2240 nM
- TGI (A549 NSCLC): 6750 nM
- GI50 (HCT-15 colon): 2630 nM
- TGI (HCT-15 colon): 10600 nM
- GI50 (OVCAR-8 ovarian): 1640 nM
- TGI (OVCAR-8 ovarian): 3060 nM
- GI50 (K-562 leukemia): 1740 nM
- TGI (K-562 leukemia): 3680 nM
- GI50 (M14 melanoma): 2620 nM
- TGI (M14 melanoma): 10100 nM
- GI50 (NCI-H522 lung): 1630 nM
- TGI (NCI-H522 lung): 3540 nM
- GI50 (OVCAR-3 ovarian): 1550 nM
- TGI (OVCAR-3 ovarian): 3040 nM
- GI50 (MDA-MB-231 breast): 2610 nM
- TGI (MDA-MB-231 breast): 8920 nM
- GI50 (SK-MEL-5 melanoma): 1620 nM
- TGI (SK-MEL-5 melanoma): 3410 nM
- GI50 (NCI-H322M lung): 6660 nM
- TGI (NCI-H322M lung): 19400 nM
- GI50 (SK-OV-3 ovarian): 2190 nM
- TGI (SK-OV-3 ovarian): 8030 nM
- GI50 (MDA-MB-468 breast): 1680 nM
- TGI (MDA-MB-468 breast): 3620 nM
- GI50 (UO-31 renal): 1920 nM
- TGI (UO-31 renal): 9160 nM
- GI50 (T-47D breast): 1890 nM
- TGI (T-47D breast): 5470 nM
- GI50 (ACHN renal): 2580 nM
- TGI (ACHN renal): 7930 nM
- GI50 (HOP-62 NSCLC): 30.9 nM
- TGI (HOP-62 NSCLC): 4750 nM
- GI50 (RPMI-8226 leukemia): 232 nM
- TGI (RPMI-8226 leukemia): 1280 nM
- GI50 (NCI-H460 NSCLC): 2340 nM
- TGI (NCI-H460 NSCLC): 5340 nM
- GI50 (TK-10 renal): 2400 nM
- TGI (TK-10 renal): 10700 nM
- GI50 (MOLT-4 leukemia): 1160 nM
- TGI (MOLT-4 leukemia): 2400 nM
- GI50 (SF-268 CNS): 2100 nM
- TGI (SF-268 CNS): 4860 nM
- GI50 ([…]-0 renal): 1730 nM
- TGI (786-0 renal): 3910 nM
- GI50 (LOX IMVI melanoma): 4180 nM
- TGI (LOX IMVI melanoma): 11400 nM
- GI50 (HT29 colon): 2540 nM
- TGI (HT29 colon): 6840 nM
- GI50 (MDA-MB-435 melanoma): 1910 nM
- TGI (MDA-MB-435 melanoma): 3960 nM
- GI50 (SF-539 CNS): 1800 nM
- TGI (SF-539 CNS): 3450 nM
- GI50 (DU-145 prostate): 1950 nM
- TGI (DU-145 prostate): 5120 nM
- GI50 (SNB-19 CNS): 3760 nM
- TGI (SNB-19 CNS): 16000 nM
- GI50 (MCF7 breast): 3100 nM
- TGI (MCF7 breast): 11600 nM
- GI50 (OVCAR-4 ovarian): 1960 nM
- TGI (OVCAR-4 ovarian): 4750 nM
- GI50 (PC-3 prostate): 3040 nM
- TGI (PC-3 prostate): 10600 nM
- GI50 (SK-MEL-2 melanoma): 1220 nM
- TGI (SK-MEL-2 melanoma): 2630 nM
- GI50 (SR leukemia): 1070 nM
- TGI (SR leukemia): 2280 nM
- GI50 (HCT-116 colon): 2200 nM
- TGI (HCT-116 colon): 5950 nM
- GI50 (HOP-92 NSCLC): 2950 nM
- TGI (HOP-92 NSCLC): 9360 nM
- GI50 (NCI-H226 lung): 2150 nM
- TGI (NCI-H226 lung): 5780 nM
- GI50 (U251 glioblastoma): 2430 nM
- TGI (U251 glioblastoma): 7660 nM
- GI50 (A498 renal): 2270 nM
- TGI (A498 renal): 8260 nM
- GI50 (MALME-3M melanoma): 1930 nM
- TGI (MALME-3M melanoma): 7880 nM
- GI50 (CAKI-1 renal): 1560 nM
- TGI (CAKI-1 renal): 6430 nM
- GI50 (NCI/ADR-RES ovarian): 1760 nM
- TGI (NCI/ADR-RES ovarian): 3530 nM
- GI50 (CCRF-CEM leukemia): 1600 nM
- TGI (CCRF-CEM leukemia): 3050 nM
- GI50 (COLO 205 colon): 2010 nM
- TGI (COLO 205 colon): 4520 nM
- GI50 (RXF 393 renal): 60.1 nM
- TGI (RXF 393 renal): 407 nM
- TGI (NCI-H23 lung): 22.7 nM
- GI50 (BT-549 breast): 1260 nM
- TGI (BT-549 breast): 2970 nM
- GI50 (SF-295 CNS): 7480 nM
- TGI (SF-295 CNS): 20300 nM
- GI50 (UACC-62 melanoma): 1410 nM
- TGI (UACC-62 melanoma): 5500 nM
- GI50 (KM12 colon): 1880 nM
- TGI (KM12 colon): 4270 nM
- GI50 (UACC-257 melanoma): 1290 nM
- TGI (UACC-257 melanoma): 6420 nM
- GI50 (HCC-2998 colon): 1570 nM
- TGI (HCC-2998 colon): 3150 nM
- GI50 (SN12C renal): 1960 nM
- TGI (SN12C renal): 4230 nM
- GI50 (OVCAR-5 ovarian): 4710 nM
- TGI (OVCAR-5 ovarian): 17000 nM
- GI50 (SK-MEL-28 melanoma): 2360 nM
- TGI (SK-MEL-28 melanoma): 8430 nM
